“Also recorded” adds a separate entry of the source. Marks after values point to notes of the source that are not given here.
Experiments:
[1] = tested on: BALB/c mice subjected to cecal ligation and puncture; experiment: Survival after cecal ligation and puncture 7 days after trauma, NS-398 twice a day over 7 days; format: in vivo
Description: All cytokine results are reported as mean±SEM of 8 mice per group. The ANOVA was used to determine the significance of the differences between means of traumatized±treatment versus control±treatment groups. A P value of <0.05 was considered significant. For survival studies, Kaplan-Meier (Log-rank) statistical analysis was used to compare all four groups studied. A P value of <0.05 was considered significant.
To evaluate the biological relevance of NS-398, mice were randomized into the four treatment groups. After 7 days, all mice were subjected to cecal ligation and puncture (CLP) and followed for survival over 10 days, when remaining mice were euthanized. […] Only 9% of control mice survived after 200 hours compared to a significant increase in survival of trauma+NS-398 treated mice in which 45% survived.
BALB/C mice (n=8/group) were given 10mg/kg NS398 intraperitoneally BID for 7 days, starting immediately after sham injury or trauma (femur fracture+40% hemorrhage). Four groups, sham+placebo (C); sham+NS398 (CN); trauma+placebo (T); or trauma+NS398 (TN) were studied. On day 7 after trauma, mice were sacrificed and splenic macrophages evaluated for PGE2, TNF-α and NO production (via Student's t-test). In a separate study, mice (n=10-11/group) were traumatized and given NS398 for 7 days. On day 7, cecal ligation and puncture was performed, and mice evaluated for survival over 3 weeks (via Log-rank test).

[2] = tested on: NF-κB; experiment: Electrophoretic mobility shift assay of nuclear NF-κB in splenic macrophages; format: in vivo, BALB/c mice; conditions: NS-398 treatment after trauma, over 7 days
Procedure: NF-κB gel shift oligonucleotide 5′ AGTTGAGGGGACTTTCCCAGGC 3′ (Santa Cruz Laboratories, Santa Cruz, Calif.) was end labeled with (^32P)γATP using polynucleotide kinase T4 (Gibco BRL, Grand Island, N.Y.). End labeled probe was purified from unincorporated (^32P)-γATP using a purification column (Bio-Rad Laboratories) and recovered in tris-EDTA buffer. Samples consisted of adherent macrophages collected after 45 minutes stimulation with 10 ng/mL LPS. Adherent cells were scraped into 1 mL of cold HANKS balanced salt solution. The cell suspension was pelleted after centrifugation in a microcentrifuge for 10 seconds and resuspended in 400 μl cold Buffer A (10 mM HEPES-KOH pH 7.9 at 4° C., 1.5 mM MgCl2, 10 mM KCl, 0.5 mM dithiothreitol, 0.2 mM PMSF) by agitation of the tube. The cells were allowed to swell on ice for 10 minutes, and then vortexed for 10 seconds. Samples were centrifuged for 10 seconds and the supernatant fraction was saved at −70° C. for IκB analysis. The pellet was resuspended in 20-100 μl of cold buffer C (20 mM HEPES-KOH pH 7.9, 25% glycerol, 420 mM NaCl, 1.5 mM MgCl2. 0.2 mM EDTA, 0.5 mM dithiothreitol 0.2 mM PMSF) and incubated on ice for 20 minutes. […] Samples were subjected to electrophoretic separation on a non denaturing 5% poly-acrylamide gel at 30 mA using Tris borate EDTA for 45 minutes and analyzed by exposure to radiographic film (Kodak, Rochester, N.Y.).

[3] = tested on: EP4 receptor; experiment: EP4 receptor expression in LPS stimulated human PBMC's via RT-PCR; format: cell-based; conditions: PBMC's after injury, co-incubation with NS-398
Procedure: Serial dilutions were made to co-culture cells with a final concentration of […] NS-398 in a 0.1% DMSO. Control and trauma groups were co-cultured with 0.1% DMSO vehicle for comparisons with NS-398 treated groups.

With `CS(=O)(=O)Nc1ccc([N+](=O)[O-])cc1OC1CCCCC1` [NS-398, N-(2-cyclohexyloxy-4-nitrophenyl)methanesulfonamide] the survival ([1]; C + NS398, 10 mg/kg i.p. BID for 7 days, CLP on day 7) was 0%, the survival ([1]; T + NS398, 10 mg/kg i.p. BID for 7 days, CLP on day 7) was 45%* and the “survival (in words)” value ([1]; control+NS-398 mice after CLP) was “died shortly after CLP”. The survival ([1]; trauma+NS-398 treated mice, after 200 hours after CLP) was 45%, the NF-κB activation [2] was “a decrease in NF-κB activation” and the EP4 receptor expression [3] was “reversed; also recorded: restored”.

Source: patent publication US20020006915A1, “Use of COX-2 inhibitors to treat sepsis, complications thereof, and EP receptor modulation” (priority 2000, published 2002)
